Among the data in patent US20130225548A1, “Pyridine Derivative and Medicinal Agent” (NIPPON SHINYAKU CO., LTD., priority 2010, published 2013) are IC50 values, retold here.

Structures can show the parent of a compound that is named as a salt.

The assay concerns the target T1, Syk tyrosine kinase (Homo sapiens, UniProt P43405).
T1 construct: purchased Carna Biosciences, Inc
In words: Test for Syk tyrosine kinase inhibitory activity (ELISA). In kind it is biochemical. As to conditions: Syk tyrosine kinase (Carna Biosciences), 25 μM ATP in substrate solution, 30° C. 1 hour, n=2; read-out: Evaluation (IC50, concentration inhibiting the tyrosine kinase activity at 50%). The method, boiled down:
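Syk kinase (0.025 nM stock before addition) with 625 nM biotinylated peptide and 25 μM ATP (substrate-solution levels) in Tris pH 7.5, MgCl2, DTT; 1 h at 30 °C on streptavidin plates. Phosphotyrosine detected by HRP anti-pTyr antibody, TMB, A450; IC50 by non-linear regression.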
A general note: An ELISA detects its analyte on a solid surface through an enzyme-linked reagent.
Take `CN(Cc1cncc(-c2cc(C3CC3)cc(Nc3cc(C#N)ccn3)n2)c1)C1CCNCC1` [Example 92, 2-[(4-cyclopropyl-5′-{[N-methyl-N-(piperidin-4-yl)amino]methyl}-2,3′-bipyridin-6-yl)amino]pyridine-4-carbonitrile hydrochloride]: the IC50 was less than 0.005 µM.

On to `N#Cc1ccnc(Nc2cc(C3CC3)cc(-c3cncc(CNC4CCNCC4)c3)n2)c1` [Example 93, 2-({4-cyclopropyl-5′-[(piperidin-4-ylamino)methyl]-2,3′-bipyridine-6-yl}amino)pyridine-4-carbonitrile hydrochloride], for which the IC50 was in the range of 0.005 to 0.05 µM.

As for `N#Cc1ccnc(Nc2cc(C3CC3)cc(-c3cncc(NCC4CCNCC4)c3)n2)c1` [Example 94, 2-({4-cyclopropyl-5′-[(piperidin-4-ylmethyl)amino]-2,3′-bipyridin-6-yl}amino)pyridine-4-carbonitrile hydrochloride], the IC50 was in the range of 0.005 to 0.05 µM.

In the case of `N#Cc1ccnc(Nc2cc(C3CC3)cc(-c3cncc(NC4CNC4)c3)n2)c1` [Example 95, 2-{[5′-(azetidin-3-ylamino)-4-cyclopropyl-2,3′-bipyridin-6-yl]amino}pyridine-4-carbonitrile hydrochloride], the IC50 was less than 0.005 µM.

For `N#Cc1ccnc(Nc2cc(C3CC3)cc(-c3cncc(OC4CCNCC4)c3)n2)c1` [Example 96, 2-([4-cyclopropyl-5′-(piperidin-4-yloxy)-2,3′-bipyridin-6-yl]amino)pyridine-4-carbonitrile hydrochloride], the IC50 was less than 0.005 µM.

On to `N#Cc1ccnc(Nc2cc(C3CC3)cc(-c3cncc(NC[C@H]4CCNC4)c3)n2)c1` [Example 97, 2-[(4-cyclopropyl-5′-{[(3S)-pyrrolidin-3-ylmethyl]amino}-2,3′-bipyridin-6-yl)amino]pyridine-4-carbonitrile hydrochloride], for which the IC50 was less than 0.005 µM.

For `N#Cc1ccnc(Nc2cc(C3CC3)cc(-c3cncc(N4CCCNCC4)c3)n2)c1` [Example 98, 2-{[4-cyclopropyl-5′-(1,4-diazepan-1-yl)-2,3′-bipyridin-6-yl]amino}pyridine-4-carbonitrile hydrochloride], the IC50 was less than 0.005 µM.

On to `CN1CCC(Oc2cncc(-c3cc(C4CC4)cc(Nc4cc(C#N)ccn4)n3)c2)CC1` [Example 99, 2-({4-cyclopropyl-5′-[(1-methylpiperidin-4-yl)oxy]-2,3′-bipyridin-6-yl}amino)pyridine-4-carbonitrile hydrochloride], for which the IC50 was less than 0.005 µM.

In the case of `N#Cc1ccnc(Nc2cc(C3CC3)cc(-c3cncc(OCCN4CCNCC4)c3)n2)c1` [Example 100, 2-({4-cyclopropyl-5′-[2-(piperazin-1-yl)ethoxy]-2,3′-bipyridin-6-yl}amino)pyridine-4-carbonitrile hydrochloride], the IC50 lay in the range of 0.005 to 0.05 µM.

For `N#Cc1ccnc(Nc2cc(C3CC3)cc(-c3cncc(OCCN4CCOCC4)c3)n2)c1` [Example 101, 2-({4-cyclopropyl-5′-[2-(morpholin-4-yl)ethoxy]-2,3′-bipyridin-6-yl}amino)pyridine-4-carbonitrile hydrochloride], the IC50 is 0.05 to 0.5 µM.

With `N#Cc1ccnc(Nc2cc(C3CC3)cc(-c3cncc(OC4CNC4)c3)n2)c1` [Example 102, 2-{[5′-(azetidin-3-yloxy)-4-cyclopropyl-2,3′-bipyridin-6-yl]amino}pyridine-4-carbonitrile hydrochloride], the IC50 was 0.005 to 0.05 µM.

With `N#Cc1ccnc(Nc2cc(C3CC3)cc(-c3cncc(OC4CCN(CC(N)=O)CC4)c3)n2)c1` [Example 103, 2-[4-({6-[(4-cyanopyridin-2-yl)amino]-4-cyclopropyl-2,3′-bipyridin-5′-yl}oxy)-piperidin-1-yl]acetamide hydrochloride], the IC50 is 0.005 to 0.05 µM.

Take `N#Cc1ccnc(Nc2cc(C3CC3)cc(-c3cncc(OC4CCN(C(N)=O)CC4)c3)n2)c1` [Example 104, 4-({6-[(4-cyanopyridin-2-yl)amino]-4-cyclopropyl-2,3′-pypyridin-5′-yl}oxy)piperidine-1-carboxamide hydrochloride]: the IC50 lay within 0.005 to 0.05 µM.

Turning to `N#Cc1ccnc(Nc2cc(C3CC3)cc(-c3cnc(N4CCS(=O)(=O)CC4)nc3)n2)c1` [Example 105, 2-({4-cyclopropyl-6-[2-(1,1-dioxidethiomorpholin-4-yl)pyrimidin-5-yl]pyridin-2-yl}amino)pyridine-4-carbonitrile hydrochloride], the IC50 fell in the range of 0.05 to 0.5 µM.

In the case of `N#Cc1ccnc(Nc2cc(C3CC3)cc(-c3cnc(N4CCCN(C(N)=O)CC4)nc3)n2)c1` [Example 106, 4-(5-{6-[(4-cyanopyridin-2-yl)amino]-4-cyclopropylpyridin-2-yl}pyrimidin-2-yl)-1,4-diazepane-1-carboxamide hydrochloride], the IC50 is 0.005 to 0.05 µM.

For `CN(C)CCOc1cncc(-c2cc(C3CC3)cc(Nc3cc(C#N)ccn3)n2)c1` [Example 107, 2-({4-cyclopropyl-5′-[2-(dimethylamino)ethoxy]-2,3′-bipyridin-6-yl}amino)pyridine-4-carbonitrile hydrochloride], the IC50 was 0.005 to 0.05 µM.

For `CN(C)C(C)(C)COc1cncc(-c2cc(C3CC3)cc(Nc3cc(C#N)ccn3)n2)c1` [Example 108, 2-({4-cyclopropyl-5′-[2-(dimethylamino)-2-methylpropoxy]-2,3′-bipyridin-6-yl}amine)pyridine-4-carbonitrile hydrochloride], the IC50 was in the range of 0.05 to 0.5 µM.

Consider `N#Cc1ccnc(Nc2cc(C3CC3)cc(-c3cncc(OCC(N)=O)c3)n2)c1` [Example 109, 2-({6-[(4-cyanopyridin-2-yl)amino]-4-cyclopropyl-2,3′-bipyridin-5′-yl}oxy)acetamide hydrochloride], for which the IC50 is 0.005 to 0.05 µM.

In the case of `CC(=O)N1CCCN(c2cncc(-c3cc(C4CC4)cc(Nc4cc(C#N)ccn4)n3)c2)CC1` [Example 110, 2-{[5′-(4-acetyl-1,4-diazepan-1-yl)-4-cyclopropyl-2,3′-bipyridin-6-yl]amino}pyridine-4-carbonitrile hydrochloride], the IC50 was in the range of 0.05 to 0.5 µM.

As to `N#Cc1ccnc(Nc2cc(C3CC3)cc(-c3cncc(N4CCC(O)C4)c3)n2)c1` (stereo not shown) [Example 111, 2-{[4-cyclopropyl-5′-(3-hydroxypyrrolidin-1-yl)-2,3′-bipyridin-6-yl]amino}pyridine-4-carbonitrile hydrochloride], the IC50 fell in the range of 0.005 to 0.05 µM.

For the compound `N#Cc1ccnc(Nc2cc(C3CC3)cc(-c3cncc(N4CCC[C@H](O)C4)c3)n2)c1` [Example 112, 2-({4-cyclopropyl-5′-[(3S)-3-hydroxypiperidin-1-yl]-2,3′-bipyridin-6-yl}amino)pyridine-4-carbonitrile hydrochloride], the IC50 is less than 0.005 µM.

Turning to `N#Cc1ccnc(Nc2cc(C3CC3)cc(-c3cncc(N4CCC[C@@H](O)C4)c3)n2)c1` [Example 113, 2-({4-cyclopropyl-5′-[(3R)-3-hydroxypiperidin-1-yl]-2,3′-bipyridin-6-yl}amino)pyridine-4-carbonitrile hydrochloride], the IC50 lay in the range of 0.005 to 0.05 µM.

Take `Cn1cc(-c2cncc(-c3cc(C4CC4)cc(Nc4cc(C#N)ccn4)n3)c2)cn1` [Example 114, 2-{[4-cyclopropyl-5′-(1-methyl-1H-pyrazol-4-yl)-2,3′-bipyridin-6-yl]amino}pyridine-4-carbonitrile hydrochloride]: the IC50 lay in the range of 0.05 to 0.5 µM.

On to `N#Cc1ccnc(Nc2cc(C3CC3)cc(-c3cncc(N4CCNC(=O)C4)c3)n2)c1` [Example 115, 2-{[4-cyclopropyl-5′-(3-oxopiperazin-1-yl)-2,3′-bipyridin-6-yl]amino}pyridine-4-carbonitrile], for which the IC50 was less than 0.005 µM.

`N#Cc1ccnc(Nc2cc(C3CC3)cc(-c3cncc(N4CCC(O)CC4)c3)n2)c1` [Example 116, 2-{[4-cyclopropyl-5′-(4-hydroxypiperidin-1-yl)-2,3′-bipyridin-6-yl]amino}pyridine-4-carbontrile hydrochloride]: the IC50 fell in the range of 0.005 to 0.05 µM.

Consider `N#Cc1ccnc(Nc2cc(C3CC3)cc(-c3ccc4c(c3)ncn4C(CO)CO)n2)c1` [Example 117, 2-({4-cyclopropy-6-[1-(1,3-dihydroxypropan-2-yl)-1H-benzimidazol-5-yl)]pyridin-2-yl}amino)pyridine-4-carbonitrile hydrochloride], for which the IC50 was 0.005 to 0.05 µM.

`CC(C)(O)Cn1cnc2cc(-c3cc(C4CC4)cc(Nc4cc(C#N)ccn4)n3)ccc21` [Example 118, 2-({4-cyclopropyl-6-[1-(2-hyroxy-2-methylpropyl)-1H-benzimidazol-5-yl]pyridin-2-yl}amino)pyridine-4-carbonitrile hydrochloride]: the IC50 was in the range of 0.05 to 0.5 µM.

For the compound `CC(C)(CO)Cn1cnc2cc(-c3cc(C4CC4)cc(Nc4cc(C#N)ccn4)n3)ccc21` [Example 119, 2-({4-cyclopropyl-6-[1-(3-hydroxy-2,2-dimethylpropyl)-1H-benzimidazol-5-yl]pyridin-2-yl}amino)pyridine-4-carbonitrile hydrochloride], the IC50 was 0.05 to 0.5 µM.

On to `N#Cc1ccnc(Nc2cc(C3CC3)cc(-c3ccc4c(c3)ncn4CC3(O)CCCCC3)n2)c1` [Example 120, 2-[(4-cyclopropyl-6-{1-[(1-hydroxycyclohexyl)methyl]-1H-benzimidazol-5-yl}pyridin-2-yl)amino]pyridine-4-carbonitrile hydrochloride], for which the IC50 was in the range of 0.05 to 0.5 µM.

Take `N#Cc1ccnc(Nc2cc(C3CC3)cc(-c3ccc4c(c3)ncn4CCCO)n2)c1` [Example 121, 2-({4-cyclopropyl-6-[1-(3-hydroxypropyl)-1H-benzimidazol-5-yl]pyridin-2-yl}amino)pyridine-4-carbonitrile hydrochloride]: the IC50 fell in the range of 0.05 to 0.5 µM.

As to `N#Cc1ccnc(Nc2cc(C3CC3)cc(-c3ccc4ncn([C@H]5CC[C@H](O)CC5)c4c3)n2)c1` [Example 122, 2-({4-cyclopropyl-6-[1-(trans-4-hydroxycyclohexyl)-1H-benzimidazol-6-yl]pyridin-2-yl}amino)pyridine-4-carbonitrile hydrochloride], the IC50 is less than 0.005 µM.
